According to patent publication US20230278972A1, “SUBSTITUTED HALOALKYL SULFONANILIDE HERBICIDES” (FMC Corporation, priority 2020, published 2023):

How the values were obtained:
Assay type in all cases: in vivo
[1] = tested on: galium (catchweed bedstraw, Galium aparine); test: Test A postemergence, galium; settings: Postemergence, 0 to 100 scale (0 no effect, 100 complete control)
How it was run: (§1)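 After sowing into a sand-amended loam, pots for the preemergence test were treated by spraying directly onto soil. In parallel, seedlings at the one- to two-leaf stage and 2 to 10 cm tall were treated postemergence with the identical surfactant-containing formulation.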

kochia (Bassia scoparia) [2] = test: Test A preemergence, kochia; settings: Preemergence; for Plant response rating, Kochia: 0 to 100 scale (0 no effect, 100 complete control); for Kochia plant response rating: 500 g ai/ha, visual injury on 0 to 100 scale (0 no effect, 100 complete control), approximately 10 days
How it was run: (§2)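 Postemergence ratings come from foliar sprays onto one- to two-leaf plants of 2 to 10 cm grown in loam/sand; preemergence ratings come from a directed spray onto the soil of newly seeded pots. Formulation was a surfactant-containing non-phytotoxic solvent blend.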

[3] = tested on: wheat (Triticum aestivum); test: Test A postemergence, wheat; settings: Postemergence, 0 to 100 scale (0 no effect, 100 complete control)
How it was run: as §1

[4] = tested on: pigweed (Amaranthus retroflexus); test: Test A postemergence, pigweed; settings: Postemergence, 0 to 100 scale (0 no effect, 100 complete control)
How it was run: as §2

[5] = tested on: blackgrass (Alopecurus myosuroides); test: Test A postemergence, blackgrass; settings: Postemergence, 0 to 100 scale (0 no effect, 100 complete control)
How it was run: as §2

[6] = tested on: pigweed (Amaranthus retroflexus); test: Test A preemergence, pigweed; settings: for Plant response rating, Pigweed: 0 to 100 scale (0 no effect, 100 complete control); for Pigweed plant response rating: 500 g ai/ha, visual injury on 0 to 100 scale (0 no effect, 100 complete control), approximately 10 days
How it was run: as §1

[7] = tested on: barnyardgrass (Echinochloa crus-galli); test: Test A preemergence, barnyardgrass; settings: Preemergence; for Plant response rating, Barnyardgrass: 0 to 100 scale (0 no effect, 100 complete control); for Barnyardgrass plant response rating: 500 g ai/ha, visual injury on 0 to 100 scale (0 no effect, 100 complete control), approximately 10 days
How it was run: as §2

[8] = tested on: Ryegrass, Italian (Italian ryegrass, Lolium multiflorum); test: Test A postemergence, Ryegrass, Italian; settings: Postemergence, 0 to 100 scale (0 no effect, 100 complete control)
How it was run: as §2

[9] = tested on: ragweed (common ragweed, Ambrosia artemisiifolia); test: Test A postemergence, ragweed; settings: Postemergence, 0 to 100 scale (0 no effect, 100 complete control)
How it was run: as §2

[10] = tested on: Foxtail, Giant (giant foxtail, Setaria faberi); test: Test A preemergence, Foxtail, Giant; settings: Preemergence; for Plant response rating, Foxtail, Giant: 0 to 100 scale (0 no effect, 100 complete control); for Foxtail, Giant plant response rating: 500 g ai/ha, visual injury on 0 to 100 scale (0 no effect, 100 complete control), approximately 10 days
How it was run: as §2

corn (Zea mays) = test: Test A postemergence, corn; settings: Postemergence, 0 to 100 scale (0 no effect, 100 complete control)
How it was run: as §2

kochia (Bassia scoparia) [11] = test: Test A postemergence, kochia; settings: Postemergence, 0 to 100 scale (0 no effect, 100 complete control)
How it was run: as §2

[12] = tested on: Ryegrass, Italian (Italian ryegrass, Lolium multiflorum); test: Test A preemergence, Ryegrass, Italian; settings: Preemergence; for Plant response rating, Ryegrass, Italian: 0 to 100 scale (0 no effect, 100 complete control); for Ryegrass, Italian plant response rating: 500 g ai/ha, visual injury on 0 to 100 scale (0 no effect, 100 complete control), approximately 10 days
How it was run: as §2

[13] = tested on: barnyardgrass (Echinochloa crus-galli); test: Test A postemergence, barnyardgrass; settings: Postemergence, 0 to 100 scale (0 no effect, 100 complete control)
How it was run: as §1

[14] = tested on: Foxtail, Giant (giant foxtail, Setaria faberi); test: Test A postemergence, Foxtail, Giant; settings: Postemergence, 0 to 100 scale (0 no effect, 100 complete control)
How it was run: as §2

[15] = tested on: ragweed (common ragweed, Ambrosia artemisiifolia); test: Test A preemergence, ragweed; settings: Preemergence; for Plant response rating, Ragweed: 0 to 100 scale (0 no effect, 100 complete control); for Ragweed plant response rating: 500 g ai/ha, visual injury on 0 to 100 scale (0 no effect, 100 complete control), approximately 10 days
How it was run: as §2

[16] = 500 g ai/ha, visual injury approx. 10 days
[17] = 125 g ai/ha, visual injury, approx. 10 days
[18] = 1000 g ai/ha, visual injury, approx. 10 days

For `Cc1cc(Cl)c(C(=O)N2CCCCC2)cc1N(S(=O)(=O)C(F)(F)F)S(=O)(=O)C(F)(F)F` [Compound 253], the “Plant response rating, Galium” value ([1]; 125 g ai/ha) was 70, the “Plant response rating, Galium” value [1, 16] was 90 and the “Plant response rating, Kochia” value (kochia (Bassia scoparia) [2]; [17]) was 70. For the same molecule, the “Kochia plant response rating” value (kochia (Bassia scoparia) [2]) was 80, the “Plant response rating, Wheat” value ([3]; 125 g ai/ha) was 0 and the “Plant response rating, Wheat” value [3, 16] was 0. For the same molecule, the “Plant response rating, Pigweed” value ([4]; 125 g ai/ha) was 50, the “Plant response rating, Pigweed” value [4, 16] was 80 and the “Plant response rating, Blackgrass” value ([5]; 125 g ai/ha) was 0. The “Plant response rating, Blackgrass” value [5, 16] was 0, the “Plant response rating, Pigweed” value [6, 17] was 100 and the “Pigweed plant response rating” value [6] was 100. The “Plant response rating, Barnyardgrass” value [7, 17] was 60, the “Barnyardgrass plant response rating” value [7] was 70 and the “Plant response rating, Ryegrass, Italian” value ([8]; 125 g ai/ha) was 0. For the same molecule, the “Plant response rating, Ryegrass, Italian” value [8, 16] was 0, the “Plant response rating, Ragweed” value ([9]; 125 g ai/ha) was 30 and the “Plant response rating, Ragweed” value [9, 16] was 50. For the same molecule, the “Plant response rating, Foxtail, Giant” value [10, 17] was 100, the “Foxtail, Giant plant response rating” value [10] was 100 and the “Plant response rating, Corn” value (corn (Zea mays); 125 g ai/ha) was 0. The “Plant response rating, Corn” value (corn (Zea mays); [16]) was 0, the “Plant response rating, Kochia” value (kochia (Bassia scoparia) [11]; 125 g ai/ha) was 30 and the “Plant response rating, Kochia” value (kochia (Bassia scoparia) [11]; [16]) was 60. The “Plant response rating, Ryegrass, Italian” value [12, 17] was 60, the “Ryegrass, Italian plant response rating” value [12] was 100 and the “Plant response rating, Barnyardgrass” value ([13]; 125 g ai/ha) was 0. The “Plant response rating, Barnyardgrass” value [13, 16] was 20, the “Plant response rating, Foxtail, Giant” value ([14]; 125 g ai/ha) was 0 and the “Plant response rating, Foxtail, Giant” value [14, 16] was 0. For the same molecule, the “Plant response rating, Ragweed” value [15, 17] was 40 and the “Ragweed plant response rating” value [15] was 40.
`Cc1cc(Cl)c(C(=O)N(C)C)cc1N(S(=O)(=O)C(F)(F)F)S(=O)(=O)C(F)(F)F` [Compound 256] was tested, and the “Plant response rating, Galium” value ([1]; 125 g ai/ha) was 60, the “Plant response rating, Galium” value [1, 16] was 80 and the “Plant response rating, Kochia” value (kochia (Bassia scoparia) [2]; [17]) was 60. The “Kochia plant response rating” value (kochia (Bassia scoparia) [2]) was 90, the “Plant response rating, Wheat” value ([3]; 125 g ai/ha) was 20 and the “Plant response rating, Wheat” value [3, 16] was 60. The “Plant response rating, Pigweed” value ([4]; 125 g ai/ha) was 60, the “Plant response rating, Pigweed” value [4, 16] was 80 and the “Plant response rating, Blackgrass” value ([5]; 125 g ai/ha) was 0. For the same molecule, the “Plant response rating, Blackgrass” value [5, 16] was 0, the “Plant response rating, Pigweed” value [6, 17] was 100 and the “Pigweed plant response rating” value [6] was 100. For the same molecule, the “Plant response rating, Barnyardgrass” value [7, 17] was 90, the “Barnyardgrass plant response rating” value [7] was 100 and the “Plant response rating, Ryegrass, Italian” value ([8]; 125 g ai/ha) was 0. The “Plant response rating, Ryegrass, Italian” value [8, 16] was 50, the “Plant response rating, Ragweed” value ([9]; 125 g ai/ha) was 40 and the “Plant response rating, Ragweed” value [9, 16] was 80. For the same molecule, the “Plant response rating, Foxtail, Giant” value [10, 17] was 30, the “Foxtail, Giant plant response rating” value [10] was 90 and the “Plant response rating, Corn” value (corn (Zea mays); 125 g ai/ha) was 0. The “Plant response rating, Corn” value (corn (Zea mays); [16]) was 20, the “Plant response rating, Kochia” value (kochia (Bassia scoparia) [11]; 125 g ai/ha) was 50 and the “Plant response rating, Kochia” value (kochia (Bassia scoparia) [11]; [16]) was 70. For the same molecule, the “Plant response rating, Ryegrass, Italian” value [12, 17] was 80, the “Ryegrass, Italian plant response rating” value [12] was 100 and the “Plant response rating, Barnyardgrass” value ([13]; 125 g ai/ha) was 60. The “Plant response rating, Barnyardgrass” value [13, 16] was 50, the “Plant response rating, Foxtail, Giant” value ([14]; 125 g ai/ha) was 10 and the “Plant response rating, Foxtail, Giant” value [14, 16] was 0. The “Plant response rating, Ragweed” value [15, 17] was 60 and the “Ragweed plant response rating” value [15] was 80.
With `COc1cc(Cl)c(NS(=O)(=O)C(F)(F)F)cc1C(=O)N1CCOCC1` [Compound 258] the “Plant response rating, Galium” value [1, 18] was 80, the “Plant response rating, Kochia” value (kochia (Bassia scoparia) [2]; 1000 g ai/ha) was 90 and the “Plant response rating, Wheat” value [3, 18] was 30. For the same molecule, the “Plant response rating, Pigweed” value [4, 18] was 80, the “Plant response rating, Blackgrass” value [5, 18] was 50 and the “Plant response rating, Pigweed” value ([6]; 1000 g ai/ha) was 100. For the same molecule, the “Plant response rating, Barnyardgrass” value ([7]; 1000 g ai/ha) was 80, the “Plant response rating, Ryegrass, Italian” value [8, 18] was 70 and the “Plant response rating, Ragweed” value [9, 18] was 80. The “Plant response rating, Foxtail, Giant” value ([10]; 1000 g ai/ha) was 90, the “Plant response rating, Corn” value (corn (Zea mays); [18]) was 10 and the “Plant response rating, Kochia” value (kochia (Bassia scoparia) [11]; [18]) was 90. The “Plant response rating, Ryegrass, Italian” value ([12]; 1000 g ai/ha) was 70, the “Plant response rating, Barnyardgrass” value [13, 18] was 70 and the “Plant response rating, Foxtail, Giant” value [14, 18] was 50. The “Plant response rating, Ragweed” value ([15]; 1000 g ai/ha) was 90.
In the case of `Cc1ccc(C(=O)N2CCCCC2)cc1NS(=O)(=O)C(F)(F)F` [Compound 259], the “Plant response rating, Galium” value [1, 18] is reported as 60, the “Plant response rating, Kochia” value (kochia (Bassia scoparia) [2]; 1000 g ai/ha) is reported as 40 and the “Plant response rating, Wheat” value [3, 18] is reported as 0. The “Plant response rating, Pigweed” value [4, 18] was 40, the “Plant response rating, Blackgrass” value [5, 18] was 50 and the “Plant response rating, Pigweed” value ([6]; 1000 g ai/ha) was 80. The “Plant response rating, Barnyardgrass” value ([7]; 1000 g ai/ha) was 90, the “Plant response rating, Ryegrass, Italian” value [8, 18] was 10 and the “Plant response rating, Ragweed” value [9, 18] was 10. For the same molecule, the “Plant response rating, Foxtail, Giant” value ([10]; 1000 g ai/ha) was 90, the “Plant response rating, Corn” value (corn (Zea mays); [18]) was 10 and the “Plant response rating, Kochia” value (kochia (Bassia scoparia) [11]; [18]) was 40. For the same molecule, the “Plant response rating, Ryegrass, Italian” value ([12]; 1000 g ai/ha) was 80, the “Plant response rating, Barnyardgrass” value [13, 18] was 0 and the “Plant response rating, Foxtail, Giant” value [14, 18] was 0. For the same molecule, the “Plant response rating, Ragweed” value ([15]; 1000 g ai/ha) was 70.
With `Cc1cc(C)c(C(=O)N2CCC(C(C)(C)C)CC2)cc1NS(=O)(=O)C(F)(F)F` [Compound 261] the “Plant response rating, Galium” value [1, 18] was 50, the “Plant response rating, Kochia” value (kochia (Bassia scoparia) [2]; 1000 g ai/ha) was 0 and the “Plant response rating, Wheat” value [3, 18] was 0. The “Plant response rating, Pigweed” value [4, 18] was 30, the “Plant response rating, Blackgrass” value [5, 18] was 0 and the “Plant response rating, Pigweed” value ([6]; 1000 g ai/ha) was 20. For the same molecule, the “Plant response rating, Barnyardgrass” value ([7]; 1000 g ai/ha) was 60, the “Plant response rating, Ryegrass, Italian” value [8, 18] was 20 and the “Plant response rating, Ragweed” value [9, 18] was 0. The “Plant response rating, Foxtail, Giant” value ([10]; 1000 g ai/ha) was 90, the “Plant response rating, Corn” value (corn (Zea mays); [18]) was 10 and the “Plant response rating, Kochia” value (kochia (Bassia scoparia) [11]; [18]) was 0. For the same molecule, the “Plant response rating, Ryegrass, Italian” value ([12]; 1000 g ai/ha) was 60, the “Plant response rating, Barnyardgrass” value [13, 18] was 0 and the “Plant response rating, Foxtail, Giant” value [14, 18] was 0. For the same molecule, the “Plant response rating, Ragweed” value ([15]; 1000 g ai/ha) was 0.
